Test results published in US7345073B2, “Method for treating cryptorchidism” (Hormos Medical Ltd., priority 2003, dated 2008).

Assays:
[1] = tested on: Aromatase over expressing mice AROM+ (line 021); assay: Testes descent (palpation and opening the animal) after six weeks of p.o. treatment, AROM+ mice; format: in vivo, mouse; details: AROM+ (021) male mice, ten mice; finrozole 10 mg/kg p.o. daily for six weeks
Procedure: (§1) The aromatase inhibitor finrozole {MPV-2213ad (10695U, without purification, Hormos Medical Ltd.} was the test compound. Vehicle (CMC-solution) was used as control substance. CMC-solution was prepared as follows: 0.25 g carboxylmethylcellulosa (CMC) (lot. 939512, Tamro OYJ) was weighed and solubilized in 50 ml of deionized (Milli-Q) water. The solution was prepared once a week and stored at +4° C. The dose level of finrozole 10 mg/kg dose level was used. The vehicle-test/control-solution, which was given to the test animals, was prepared daily as follows: the appropriate amount of finrozole was weighed in a transparent glass mortar. A few drops of vehicle were added and the mixture was thoroughly mixed. After this ⅓ of the final volume of vehicle was added to the mortar and placed into an ultrasonic incubator for five minutes. This procedure was done total of three times to reach the final volume.
(§2) Aromatase over expressing mice AROM^+ were used in this study. The mice were maintained under standard laboratory conditions at 12:12 light/dark cycle, and received free access to soyfree pelleted food (SDS, Witham, Essex, UK), and tap water.
We have generated a transgenic mouse model bearing the human ubiquitin C promoter/human P450 aromatase fusion gene (AROM^+). […] The AROM^+ males present with a multitude of severe structural and functional abnormalities of the reproductive system, such as cryptochidism, dysmorphic semiferous tubules and disrupted spermatogenesis. The males also have small or rudimentary accessory sex glands with abnormal morphology, a prominent prostatic utricle with squamous epithelial metaplasia, and abnormal morphology of ejaculatory duct and vas deferens. In addition, the abdominal wall muscle layer is thin, and the adrenals are enlarged with cortical hyperplasia. […] Some of the disorders in reproductive system, furthenmore, can be explained by the fact that the AROM^+ males are hypo-androgenic. […]

wild type FVB/N mice [2] = assay: Testes descent (palpation and opening the animal) after six weeks of p.o. treatment, wild type mice; format: in vivo, mouse; details: wild type FVB/N male mice, nine mice; finrozole 10 mg/kg p.o. daily for six weeks
Procedure: as §1
(§3) In the experiment there was […] different kind of groups of male mice, ten animals in each group. One control group (wild type FVB/N) received vehicle, as well as the other control (021 line) group. The last groups were treated with finrozole (10 mg/kg).
(§4) The dosing (4 ml solution/kg) of the animals took place p.o. daily for six weeks. On Saturdays, however, double dose of the test compounds was given to animals. On sundays there was no treatment.
(§5) The trial was conducted in total of 39 mice. […]

[3] = tested on: Aromatase over expressing mice AROM+ (line 021); assay: Relative testes weights (testes weight/animal weight), AROM+ mice; format: in vivo, mouse; details: AROM+ (021) mice, n = 10; finrozole 10 mg/kg p.o. daily for six weeks; SD 0.0003
Procedure: as §1, §2
We have generated a transgenic mouse model bearing the human ubiquitin C promoter/human P450 aromatase fusion gene (AROM^+). […]

wild type FVB/N mice [4] = assay: Relative testes weights (testes weight/animal weight), wild type mice; format: in vivo, mouse; details: n = 7, finrozole 10 mg/kg p.o. daily for six weeks, SD 0.0003
Procedure: as §1, §3, §4, §5

[5] = tested on: cryptorchidism (non-descended testes); details: according to one study; cited from earlier work

Compound | Number of descended testes [1] | Number of partly descended testes [1] | Number of undescended testes [1] | Number of descended testes (wild type FVB/N mice [2]) | Relative testes weights (testes weight/animal weight) [3] | Relative testes weights (testes weight/animal weight) (wild type FVB/N mice [4]) | efficacy in cases of true non-descended testes [5]
N#Cc1ccc(C(C(O)Cc2ccc(F)cc2)n2cncn2)cc1 (single isomer, unassigned) [finrozole, 1-[1-(4-cyanophenyl)-3-(4-fluorophenyl)-2-hydroxypropyl]-1,2,4-triazole, diasteroisomer a+d] | 17 | 2 | 1 | 18 | 0.0033 | 0.0027 | –
LHRH: lutenizing-hormone releasing hormone, hormonal treatment of cryptorchidism (QHWSYGLRPG; Gonadoliberin-1; UniProt P01148 24-33, looked up) | – | – | – | – | – | – | ineffective
